According to patent US20230039099A1, “AKT INHIBITORS FOR ENHANCING CHIMERIC T CELL PERSISTENCE” (H. Lee Moffitt Cancer Center and Research Institute, Inc., priority 2019, published 2023):

Key:
T cells = test: Toxicity of TCN for T cells; type: cell-based; conditions: human healthy donor T cells, in vitro
Protocol: Previous studies have shown drugs given during CART cell production can influence their function. To determine the effect of TCN human healthy donor T cells are treated with TCN prior to CAR transduction. 10 μM of TCN is used because it is the highest non-toxic dose for T cells. After transduction and proliferation in culture in vitro assays are preformed to determine CAR T cell function. These include cytotoxicity, cytokine secretion, RNA-seq, polyfunctional strength index, and CAR T cell phenotype. We next evaluate the function of CAR T cells given TCN during production in vivo. A total of 60 NSG mice are given the human B cell tumor cell line NALM6 containing luciferase on day −7. On day 0, 10 mice per group will be given untransduced, h1928z, or h19BBz CAR T cells produced with or without TCN. Bioluminescence imaging is used to determine tumor burden and measure overall survival.

CAR T cells = test: CAR T cell memory phenotype by flow cytometry (LSRII), TCN added during CAR T cell production; type: cell-based, human; conditions: healthy donor PBMC T cells; TCN added on day 2 before first spin transduction; flow cytometry on day 7
Protocol: FIGS. 1A to 1G show TCN increases central memory CAR T cell population. T cells were isolated from healthy donor PBMCs using negative selection. TCN was added on day 2 before the first spin transduction. On day 7 cells were stained for flow cytometry and run on an LSRII.
T cells were isolated from healthy donor PBMCs using negative selection. TCN was added on day 2 before the first spin transduction. On day 7 cells were stained for flow cytometry and run on an LSRII.
For the anti-human CD19 constructs the SFG backbone was modified to include the FMC63 ScFv with a CD8a trans-membrane and hinge domain followed by either CD28 or 4-1BB, and CD3. All SFG constructs were calcium phosphate transfected into H29 cells. Retroviral supernatants of transfected H29 were harvested and used to transduce Phoenix E or RD114 cells. Retroviral supernatant of producer cells was harvested, 0.45 μm filtered, and used to transduce T cells as described. Viability was measured by trypan blue staining and enumerated on an automated cell counter (Bio-Rad). Transduction efficiency was estimated by flow cytometry as a percentage of protein L+ live cells. For downstream experiments CAR T cell doses were normalized based on CAR gene transfer but not sorted to exclude CAR-negative T cells. As a result, total T cell dose was varied.

h19BBz CAR T cells [1] = test: Real time cell killing of 3T3-hCD19 target cells by h19BBz CAR T cells (xCelligence RTCA); type: cell-based, human; conditions: healthy donor T cells, TCN added on day 2
Protocol: (§1) T cells were isolated from healthy donor PBMCs using negative selection. TCN was added on day 2 before the first spin transduction. To measure real time cell killing CAR T cells were stimulated with 3T3-hCD19 target cells using an xCelligence RTCA machine. To measure cytokine secretion CAR T cells were stimulated with target cells for 24 hrs. Supernatant was then collected and run using Ella to measure cytokines. […] T cells were isolated from healthy donor PBMCs using negative selection. TCN was added on day 2 before the first spin transduction. To measure real time cell killing CAR T cells were stimulated with 3T3-hCD19 target cells using an xCelligence RTCA machine. To measure cytokine secretion CAR T cells were stimulated with target cells for 24 hrs. Supernatant was then collected and run using Ella to measure cytokines.

h19BBz CAR T cells [2] = test: Cytokine secretion of h19BBz CAR T cells stimulated with target cells for 24 hrs (Ella); type: cell-based, human; conditions: healthy donor T cells; TCN added on day 2; target cell stimulation 24 hrs; supernatant run on Ella
Protocol: as §1

p-Akt = p-Akt western blot in m1928z CAR T cells stimulated with 3T3-mCD19 targets; type: cell-based, mouse (C57BL6); conditions: C57BL6 splenocyte T cells, TCN added on day 2, day 5 stimulation with 3T3-mCD19 targets for 24 hrs
Protocol: T cells were isolated from C57BL6 splenocyes using negative selection. TCN was added on day 2 before the first spin transduction. On day 5 CAR T cells were stimulated with 3T3-mCD19 targets for 24 hrs. After stimulation cells were lysed and run by western blot. […] T cells were isolated from C57BL6 splenocyes using negative selection. TCN was added on day 2 before the first spin transduction. On day 5 CAR T cells were stimulated with 3T3-mCD19 targets for 24 hrs. After stimulation cells were lysed and run by western blot.

For `CN1N=C(N)c2cn([C@@H]3O[C@H](COP(=O)(O)O)[C@@H](O)[C@H]3O)c3ncnc1c23` [TCN, Triciribine], the “highest non-toxic dose for T cells” value (T cells) was 10 µM, the “central memory CAR T cell population” value (CAR T cells) was “increases” and the “effector memory CAR T cell population” value (CAR T cells) was “increases”. For the same compound, the “h19BBz CAR killing” value (h19BBz CAR T cells [1]) was “reduces”, the “h19BBz CAR cytokine secretion” value (h19BBz CAR T cells [2]) was “reduces” and the “p-Akt in m1928z CAR T cells” value (p-Akt) was “inhibits”.
